Series [1] has as its system SH-SY5Y. Kind of series: Neuroprotective activity against 6-OHDA induced apoptosis in human SH-SY5Y cells assessed as reduction in cleaved caspase-9 level at 2.5 to 10 uM pretreated for 1 hr followed by 6-OHDA addition after 6 to 24 hrs by Western blot analysis. The series is classed as functional, cell-based. (In general: A western blot detects proteins with antibodies after separation by electrophoresis.)

Series [2] relates to SH-SY5Y. As to the kind of experiment: Cytotoxicity against human SH-SY5Y cells assessed as effect on cell viability at 0.5 to 10 uM after 24 hrs by MTT assay. The class given is cell-based.
The test system of series [3] is SH-SY5Y. As to the kind of experiment: Neuroprotective activity against 6-OHDA induced apoptosis in human SH-SY5Y cells assessed as increase in Bcl-2 expression pretreated for 1 hr followed by 6-OHDA addition after 6 to 24 hrs by Western blot analysis. The series is classed as functional, cell-based.
For series [4], the target named is RAC-alpha serine/threonine-protein kinase (Homo sapiens) (UniProt P31749). As to the kind of experiment: Inhibition of 6-OHDA induced AKT phosphorylation in human SH-SY5Y cells at 2.5 to 10 uM pretreated for 1 hr followed by 6-OHDA addition after 1 hr by Western blot analysis. The class given is cell-based.
Chain of RAC-alpha serine/threonine-protein kinase (Homo sapiens) (P31749 whole entry): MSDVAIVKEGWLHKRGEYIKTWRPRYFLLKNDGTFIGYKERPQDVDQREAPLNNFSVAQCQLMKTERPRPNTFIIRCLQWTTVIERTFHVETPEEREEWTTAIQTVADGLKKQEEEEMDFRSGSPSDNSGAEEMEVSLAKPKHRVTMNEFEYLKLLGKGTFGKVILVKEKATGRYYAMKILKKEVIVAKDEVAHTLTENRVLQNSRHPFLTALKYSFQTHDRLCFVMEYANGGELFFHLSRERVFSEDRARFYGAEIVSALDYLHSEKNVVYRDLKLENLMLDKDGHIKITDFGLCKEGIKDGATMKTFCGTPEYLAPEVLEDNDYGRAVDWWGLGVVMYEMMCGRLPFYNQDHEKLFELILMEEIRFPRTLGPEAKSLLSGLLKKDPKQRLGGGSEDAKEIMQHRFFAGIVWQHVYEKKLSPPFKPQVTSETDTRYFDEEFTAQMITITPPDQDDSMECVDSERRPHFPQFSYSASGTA
Series [5] has as its system SH-SY5Y. As to the kind of experiment: Neuroprotective activity against 6-OHDA induced apoptosis in human SH-SY5Y cells assessed as reduction in cleaved PARP level at 2.5 to 10 uM pretreated for 1 hr followed by 6-OHDA addition after 6 to 24 hrs by Western blot analysis. The class given is functional, cell-based.
The target in series [6] is c-Jun N-terminal kinase, JNK (Homo sapiens) (UniProt P45983+P53779+P45984). Kind of series: Inhibition of 6-OHDA induced JNK phosphorylation in human SH-SY5Y cells at 2.5 to 10 uM pretreated for 1 hr followed by 6-OHDA addition after 1 hr by Western blot analysis. The series is classed as cell-based.
Series [7] relates to SH-SY5Y. Kind of series: Neuroprotective activity against 6-OHDA induced toxicity in human SH-SY5Y cells assessed as reduction in mitochondrial membrane potential loss at 1 to 10 uM pretreated for 1 hr followed by 6-OHDA addition after 1 to 6 hrs by rhodamine123 dye based fluorescence microscopic analysis. The series is classed as functional, cell-based.
Series [8] relates to SH-SY5Y. As to the kind of experiment: Neuroprotective activity against 6-OHDA induced toxicity in human SH-SY5Y cells assessed as reduction in nuclear condensation at 2.5 to 10 uM pretreated for 1 hr followed by 6-OHDA addition after 24 hrs by Hoechst 33258/propidium iodide staining based fluorescence microscopic analysis. The class given is functional, cell-based.
In series [9] the test system is SH-SY5Y. As to the kind of experiment: Neuroprotective activity against 6-OHDA induced toxicity in human SH-SY5Y cells assessed as reduction in LDH release pretreated for 30 mins followed by 6-OHDA addition after 24 hrs by spectrophotometric method. The series is classed as functional, cell-based. On the technique in general: LDH in the medium is a marker of cell lysis.

The target in series [10] is MAP kinase p38 (Homo sapiens) (UniProt O15264+Q15759+Q16539+P53778). The settings on record: SH-SY5Y, 2.5 to 10 uM.
Description: Inhibition of 6-OHDA induced p38 phosphorylation in human SH-SY5Y cells at 2.5 to 10 uM pretreated for 1 hr followed by 6-OHDA addition after 1 hr by Western blot analysis
Series [11] has as its system SH-SY5Y. As to the kind of experiment: Neuroprotective activity against 6-OHDA induced toxicity in human SH-SY5Y cells assessed as reduction in intracellular ROS accumulation at 1 to 10 uM pretreated for 1 hr followed by 6-OHDA addition after 1 to 6 hrs by DCFH-DA dye based fluorescence spectrophotometric method. The series is classed as functional, cell-based.
Series [12] has as its system SH-SY5Y. Kind of series: Neuroprotective activity against 6-OHDA induced toxicity in human SH-SY5Y cells assessed as reduction in cell viability pretreated for 30 mins followed by 6-OHDA addition after 24 hrs by MTT assay. The series is classed as functional, cell-based.
The target of series [13] is Mitogen-activated protein kinase; ERK1/ERK2 (Homo sapiens) (UniProt P27361+P28482). As to the kind of experiment: Inhibition of 6-OHDA induced ERK1/2 phosphorylation in human SH-SY5Y cells at 2.5 to 10 uM pretreated for 1 hr followed by 6-OHDA addition after 1 hr by Western blot analysis. The class given is cell-based.
Chain of Mitogen-activated protein kinase; ERK1/ERK2 (Homo sapiens) (P27361 whole entry, looked up): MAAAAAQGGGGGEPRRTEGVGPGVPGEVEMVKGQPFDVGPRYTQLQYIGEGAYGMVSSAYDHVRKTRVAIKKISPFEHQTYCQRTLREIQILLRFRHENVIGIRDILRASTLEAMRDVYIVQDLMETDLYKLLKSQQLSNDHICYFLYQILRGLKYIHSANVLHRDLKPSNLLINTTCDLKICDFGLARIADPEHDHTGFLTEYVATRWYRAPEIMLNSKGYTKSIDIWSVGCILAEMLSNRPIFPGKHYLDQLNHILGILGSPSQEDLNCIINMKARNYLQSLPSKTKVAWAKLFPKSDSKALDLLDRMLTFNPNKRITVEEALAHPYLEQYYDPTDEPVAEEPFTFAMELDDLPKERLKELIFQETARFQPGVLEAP
Chain of Mitogen-activated protein kinase; ERK1/ERK2 (Homo sapiens) (P28482 whole entry, looked up): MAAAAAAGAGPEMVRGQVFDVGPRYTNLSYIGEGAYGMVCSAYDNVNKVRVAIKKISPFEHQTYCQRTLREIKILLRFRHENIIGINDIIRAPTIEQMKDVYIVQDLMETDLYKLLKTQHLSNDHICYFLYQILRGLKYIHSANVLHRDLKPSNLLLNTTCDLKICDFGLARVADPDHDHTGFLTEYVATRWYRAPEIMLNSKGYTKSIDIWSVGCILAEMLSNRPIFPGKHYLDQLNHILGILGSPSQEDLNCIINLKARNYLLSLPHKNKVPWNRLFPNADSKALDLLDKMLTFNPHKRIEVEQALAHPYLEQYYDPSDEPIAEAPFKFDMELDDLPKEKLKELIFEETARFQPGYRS
The test system of series [14] is SH-SY5Y. Kind of series: Neuroprotective activity against 6-OHDA induced apoptosis in human SH-SY5Y cells assessed as reduction in Bax expression pretreated for 1 hr followed by 6-OHDA addition after 6 to 24 hrs by Western blot analysis. The class given is functional, cell-based.
For series [15], the target named is Glycogen synthase kinase-3 beta (Homo sapiens) (UniProt P49841). As to the kind of experiment: Inhibition of 6-OHDA induced GSK3beta phosphorylation in human SH-SY5Y cells at 2.5 to 10 uM pretreated for 1 hr followed by 6-OHDA addition after 1 hr by Western blot analysis. The class given is cell-based.
Chain of Glycogen synthase kinase-3 beta (Homo sapiens) (P49841 whole entry, looked up): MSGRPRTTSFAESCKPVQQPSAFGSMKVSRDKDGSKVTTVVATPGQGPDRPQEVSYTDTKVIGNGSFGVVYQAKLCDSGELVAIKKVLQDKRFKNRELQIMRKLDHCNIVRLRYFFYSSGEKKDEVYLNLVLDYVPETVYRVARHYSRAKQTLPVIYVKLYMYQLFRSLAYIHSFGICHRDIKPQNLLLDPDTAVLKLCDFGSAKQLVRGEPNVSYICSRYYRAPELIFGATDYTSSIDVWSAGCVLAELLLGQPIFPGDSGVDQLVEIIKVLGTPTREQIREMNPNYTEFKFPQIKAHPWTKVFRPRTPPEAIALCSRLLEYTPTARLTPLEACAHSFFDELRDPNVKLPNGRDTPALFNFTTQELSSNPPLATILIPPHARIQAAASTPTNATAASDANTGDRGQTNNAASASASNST
Series [16] has as its system SH-SY5Y. Kind of series: Neuroprotective activity against 6-OHDA induced apoptosis in human SH-SY5Y cells assessed as reduction in cytochrome-c level pretreated for 1 hr followed by 6-OHDA addition after 6 to 24 hrs by Western blot analysis. The series is classed as functional, cell-based.
Series [17] deals with SH-SY5Y. Kind of series: Neuroprotective activity against 6-OHDA induced apoptosis in human SH-SY5Y cells assessed as reduction in cleaved caspase-3 level at 2.5 to 10 uM pretreated for 1 hr followed by 6-OHDA addition after 6 to 24 hrs by Western blot analysis. The class given is functional, cell-based.
Series [18] concerns SH-SY5Y. As to the kind of experiment: Neuroprotective activity against 6-OHDA induced toxicity in human SH-SY5Y cells assessed as reduction in cell shrinkage at 2.5 to 10 uM pretreated for 1 hr followed by 6-OHDA addition after 24 hrs by Hoechst 33258/propidium iodide staining based fluorescence microscopic analysis. The series is classed as functional.
The test system of series [19] is SH-SY5Y. Kind of series: Neuroprotective activity against 6-OHDA induced toxicity in human SH-SY5Y cells assessed as reduction in nuclear fragmentation at 2.5 to 10 uM pretreated for 1 hr followed by 6-OHDA addition after 24 hrs by Hoechst 33258/propidium iodide staining based fluorescence microscopic analysis. The series is classed as functional, cell-based.
For series [20], the system named is SH-SY5Y. As to the kind of experiment: Cytotoxicity against human SH-SY5Y cells assessed as reduction in LDH release at 0.5 to 10 uM after 24 hrs by spectrophotometric method. The class given is cell-based.
The subject of series [21] is SH-SY5Y. Kind of series: Neuroprotective activity against 6-OHDA induced toxicity in human SH-SY5Y cells assessed as reduction in nuclear necrosis at 2.5 to 10 uM pretreated for 1 hr followed by 6-OHDA addition after 24 hrs by Hoechst 33258/propidium iodide staining based fluorescence microscopic analysis. The series is classed as functional, cell-based.

Active and inactive are the calls of the source. No cut-off for these calls is given here.

Drawing on ChEMBL document CHEMBL4177639, “Acacetin inhibits neuronal cell death induced by 6-hydroxydopamine in cellular Parkinson's disease model” (Bioorg Med Chem Lett, 2017), this text covers Activity and inhibition for one molecule.

For the molecule `COc1ccc(-c2cc(=O)c3c(O)cc(O)cc3o2)cc1` [ACACETIN], the outcome with SH-SY5Y [1], in the series with SH-SY5Y [5], in the series on SH-SY5Y [7], with SH-SY5Y [8], with SH-SY5Y [11] and in the series with SH-SY5Y [17] was Active. The outcome in the series on SH-SY5Y [18], in the series with SH-SY5Y [19] and with SH-SY5Y [21] was Active. The Activity entry was “Non-Toxic” with SH-SY5Y [2]; “Dose-dependent effect” with SH-SY5Y [3]; “Dose-dependent effect” in the series on SH-SY5Y [9]; “Dose-dependent effect” in the series with SH-SY5Y [12]; “Dose-dependent effect” with SH-SY5Y [14]; “Dose-dependent effect” in the series with SH-SY5Y [16]. In addition, the Activity result in the series on SH-SY5Y [20] was “Non-Toxic”. The inhibition result in [4], in [6], in [10] and in series [15] was “Active” throughout. The inhibition entry in series [13] was “inactive”.
